These results are taken from PubChem BioAssay (NCI).

Structures are written as SMILES. Several values for one entry are separate records, joined by “and”; a condition that tells them apart may be missing. Identical values can stand only once.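 The compound was tested at five concentrations on cells cultured in 96-well plates, with a 48-hour exposure period. GI50 marks 50% less growth. TGI: total growth inhibition.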 Bounds are passed on as bounds.

What all share (test): DTP human tumour cell line panel, 48 h
Test [1] deals with OVCAR-3 ovarian.
Test [2] relates to U251 CNS.
Test [3] has as its system ACHN renal.
The test system of test [4] is SW-620 colon.
For test [5], the system named is M14 melanoma.
Test [6] relates to CAKI-1 renal.
Test [7] has as its system SK-MEL-28 melanoma.
Test [8] has as its system SR leukemia.

Turning to `COC(=O)C(C(=O)C(N)=O)c1csc(-n2nc(-c3ccccc3)cc2-c2ccccc2)n1` (stereo unspecified), the TGI was over 100 µM in test [1]; over 31.6 µM in test [2]; over 31.6 µM in test [3]; 6.02 µM in test [4]; over 31.6 µM in test [5]; 15.5 µM in test [6]. This compound displayed a TGI in test [7] of over 31.6 µM.

With `CC(=O)Nc1ccc(-c2nnc(SCC(=O)Nc3ccc(Cl)cc3)o2)cc1`, the concentration for total growth inhibition (TGI) in test [1] is 31.1 µM; in test [2], 12.9 µM; in test [3], 28.5 µM; in test [4], 29.8 µM; in test [5], 34.1 µM; in test [6], 33.7 µM. In test [7], this compound had a total growth inhibition concentration (TGI) of 27.2 µM.

Regarding `COc1ccc2c([nH]c3c(O)c(-c4c(C)cc5c([nH]c6c(CC=C(C)C)c(OC)ccc65)c4O)c(C)cc32)c1CC=C(C)C`, the concentration for total growth inhibition (TGI) in test [1], in test [8], in test [2], in test [3], in test [4] and in test [5] was over 100 µM in each case. For the same compound, the TGI in test [6] and in test [7] was over 100 µM each time.

As for `c1ccc(-c2nnc3nn4c(-c5ccccc5)cnnc4c3c2-c2ccccc2)cc1`, the TGI in test [1], in test [8], in test [2], in test [3], in test [4] and in test [5] was over 100 µM in each case. In addition, the TGI in test [6] is 45.6 µM; in test [7], over 100 µM.

Turning to `COc1ccc(NC(=O)C2C(=O)N(c3ccc(OC)cc3)C(=O)/C2=N\NC(N)=O)cc1` (stereo unspecified), the TGI is over 100 µM in test [1]; 35.4 µM in test [2]; 82.5 µM in test [3]; over 100 µM in test [4]; over 100 µM in test [5]; over 100 µM in test [6]. In addition, the concentration for total growth inhibition (TGI) in test [7] is over 100 µM.

For the compound `S=c1c2ccccc2c(=S)n2n1CC=CC2`, the total growth inhibition concentration (TGI) in test [1], in test [2], in test [3], in test [4], in test [5] and in test [6] was over 100 µM each time. The TGI in test [7] was over 100 µM.

In the case of `COC(=O)C(=O)C(C(=O)C(=O)Nc1cc(Cl)c(Cl)cc1Cl)c1nc2ccc([N+](=O)[O-])cc2[nH]c1=O` (stereo unspecified), the TGI in test [8], in test [2], in test [3], in test [4], in test [5] and in test [6] was over 100 µM in each case. The compound also returned a TGI in test [7] of over 100 µM.

For `CCCCCCCCCCCCCCCCCC(=O)NCC(COP(=O)(O)O)OCC` (stereo unspecified), the TGI in test [1], in test [8], in test [4], in test [5], in test [6] and in test [7] was over 100 µM each time.

As for `Cc1ccc(/C=N/NS(=O)(=O)c2ccccc2)c(C)c1`, the concentration for total growth inhibition (TGI) in test [1], in test [8], in test [2], in test [3], in test [4] and in test [5] was over 100 µM in each case. The TGI in test [6] and in test [7] was over 100 µM each time.

For the compound `O=c1[nH]cc(C(F)(C(F)(F)F)C(F)(F)F)c(=O)[nH]1`, the concentration for total growth inhibition (TGI) in test [1], in test [2], in test [3], in test [4], in test [5] and in test [6] was over 100 µM each time. The same compound yielded a TGI in test [7] of over 100 µM.

Turning to `CC(C)[Si](OCC1CC(C#N)OC(C)(C)O1)(C(C)C)C(C)C` (stereo unspecified), the TGI in test [1] turned out to be 29.4 µM; in test [8], 41.5 µM; in test [2], 30 µM; in test [3], 29.4 µM; in test [4], 36 µM; in test [5], 48.4 µM. The figures for the TGI in test [6] and in test [7] were 69.5 µM and over 100 µM, respectively.

Regarding `CC(=O)OC(=O)O/C=C\CCl`, the TGI in test [1], in test [8], in test [2], in test [3], in test [4] and in test [5] was over 100 µM throughout. The TGI in test [6] and in test [7] was over 100 µM throughout.

In the case of `Cc1ccc2nc(NC(=O)C(=O)CC(=O)c3cccc4ccccc34)sc2c1`, the TGI in test [1] was 49.6 µM; in test [2], 49.7 µM; in test [3], over 100 µM; in test [4], over 100 µM; in test [5], 44.2 µM; in test [6], 78 µM. In test [7], the TGI was over 100 µM.

Consider `C/C(CC(=O)Nc1cccc([N+](=O)[O-])c1)=N\NC(=O)CC#N`, for which the TGI in test [1], in test [2], in test [4], in test [5] and in test [7] was over 100 µM throughout.

For `Cc1c2ccncc2c(C)c2c1[nH]c1ccc(Cl)cc12`, the GI50 is 4.62 µM in test [1]; 1.49 µM in test [2]; 1.04 µM in test [4]; 0.602 µM and 5.24 µM in test [6]; 1.93 µM in test [7]. Further, the concentration for total growth inhibition (TGI) in test [1] was 5.71 µM and 16.6 µM; in test [2] it was 11.5 µM and 2.94 µM; in test [3] it was 13.1 µM; in test [4], 9.35 µM and 2.6 µM; in test [5], 16.7 µM; in test [7], 13.3 µM and 3.67 µM.

Take `O=C1C=Cc2ncccc2C1=O`: the concentration for total growth inhibition (TGI) is 46.9 µM in test [1]; over 57.8 µM in test [2]; 50.6 µM in test [3]; 31.1 µM in test [4]; 32 µM in test [5]; 48.9 µM in test [6]. This compound had a TGI in test [7] of 48.1 µM.

For the compound `O=CCCCC(Sc1ccccc1)Sc1ccccc1`, the TGI in test [1] was determined as 68 µM; in test [8], 48.3 µM; in test [2], 30.3 µM; in test [3] it was 38.4 µM; in test [4], 23.6 µM; in test [5] it was 51.3 µM. For the same compound, the figures for the TGI in test [6] and in test [7] were over 100 µM and 32 µM, respectively.

For orientation: TGI means the concentration giving total growth inhibition. Low readings indicate more potent growth arrest, high ones less potent growth arrest. By GI50 is commonly meant the concentration at which growth is held to half of that of the control.
